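How tested: cells in 96-well plates exposed to compound for 48 hours at five concentrations. At the GI50, growth is halved. TGI: concentration producing complete growth inhibition.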
The compounds below were run on LOX IMVI melanoma (assay: DTP human tumour cell line panel, 48 h).

| SMILES | GI50 [µM] | TGI [µM] |
| --- | --- | --- |
| CCOC(=O)[C@@H](N)CCC(=O)N[C@@H](CSCc1ccccc1)C(=O)N[C@@H](C(=O)OCC)c1ccccc1 | 16.7 | 32.1 |
| COc1ccc(Nc2c3ccccc3nc3occc23)cc1 | 6.14 | 59.9 |
| CC(=O)/C(C)=N/NC(=O)c1ccccc1O | > 100 | > 100 |
| COc1cc(/C=C/c2cc(/C=C/c3ccc(O)c(OC)c3)n(C(=O)Nc3ccc(F)c(Cl)c3)n2)ccc1O | 0.0792 | 1.85 |
| CCCCCCCC/C=C/CCCCCCCC(=O)OC[C@H]1O[C@@H](n2ccc(N)nc2=O)C(F)(F)[C@@H]1O | 0.0418 | > 35.9 |
| NS(=O)(=O)c1ccc(N=Nc2c(O)[nH]c3ccc(-c4cnco4)cc23)cc1 | 22.8 | > 25 |
| Clc1ccc(C2=Nn3c(COc4ccccc4Cl)nnc3SC2)c(Cl)c1 | 15.2 | 28.7 |
| COc1cc2c3c(n(CCCNC(=O)OCC4c5ccccc5-c5ccccc54)c(=O)c2cc1OC)-c1cc2c(cc1/C3=C\CCNC(=O)OCC1c3ccccc3-c3ccccc31)OCO2 | > 22.5 | > 50 |
| N#C/C(=C1C=C(Br)/C(=N\O)C=C\1Cl)c1cccc2ccccc12 |  | > 100 |
| COC(=O)[C@@H](C)CNS(=O)(=O)N(c1cc(C(F)(F)F)cc(C(F)(F)F)c1)C1CCN(Cc2ccc(F)cc2)CC1 | 8.1 | 25 |
| C=C1C(=O)O[C@@H]2/C=C(\C)CC/C=C(/COC(C)=O)C[C@@H](OC(C)=O)[C@@H]12 |  | 13.1 |
| COC(=O)[C@H](C)NC(=O)NC(=O)NC(=O)CI | 2.27 | 5.97 |

What follows are compounds tested on MDA-MB-231 breast (assay: DTP human tumour cell line panel, 48 h).

| SMILES | GI50 [µM] | TGI [µM] |
| --- | --- | --- |
| CC(C)n1nc(-c2cc3cc(O)ccc3[nH]2)c2c(N)ncnc21 | 0.296 | 17.4 |
| CCCCC(O)(c1ccc(Cl)cc1)C(CN1CCOCC1)c1ccc(Cl)cc1 (stereo not given) | 12.7 | 27.7 |
| NCC1Nc2ccccc2[C@@H](O)C1O (stereo not given in full) |  | > 100 |
| Cc1cccc(N2CCN(C(=S)c3ccc4c(c3)OCO4)CC2)c1 | 0.861 | > 100 |
| O=C(N/N=C/c1ccc(Cl)cc1)c1ccc(C(F)(F)F)nc1Nc1cccc(C(F)(F)F)c1 | 2.22 | 8.83 |
| COc1cc2ncnc(Nc3ccc(C)c(O)c3)c2cc1OC | 17.1 | > 25 |
| COC(=O)C1=CNC=C(C(=O)OC)C1C1=CC(=O)C(C)=CC1=O | 2.78 | 19.1 |
| Cc1cc(S(=O)(=O)Nc2nnc(-c3ccccc3)c(-c3ccccc3)n2)c(SCC(N)=O)cc1Cl | 36.3 | > 100 |
| COc1ccc(/C=C/c2ccnc3ccccc23)c(OC)c1 |  | > 10 |
| Cc1ccc(C(=O)CN(/C=C/C(=O)C(F)(F)F)c2ccc(S(N)(=O)=O)cc2)cc1 | > 100 | > 100 |
| NS(=O)(=O)c1ccc(NC2(C(=O)O)CCCC2)cc1 |  | > 100 |
| O=C(O)C1OC(n2cc(F)c(=O)[nH]c2=O)CC1O (stereo not given) |  | > 100 |
| N=C1C(c2nc3ccccc3s2)=C(O)CN1c1cc(C(F)(F)F)ccc1Cl | 12.1 | 95.7 |
| CC(=O)CSCc1ccccn1 |  | > 100 |
| COc1ccccc1CNCCCN1C(=O)c2ccc3c4c(ccc(c24)C1=O)C(=O)N(CCCOCCCCOCCCN)C3=O | 1.08 | 4.14 |
| CCOC(=O)[C@@H](N)CCC(=O)N[C@@H](CSCc1ccccc1)C(=O)N[C@@H](C(=O)OCC)c1ccccc1 | 18.1 | 34.1 |
| COc1ccc(Nc2c3ccccc3nc3occc23)cc1 | 3.66 | 22.7 |
| CC(=O)/C(C)=N/NC(=O)c1ccccc1O |  | > 100 |
| COc1cc(/C=C/c2cc(/C=C/c3ccc(O)c(OC)c3)n(C(=O)Nc3ccc(F)c(Cl)c3)n2)ccc1O | 0.495 | 3.85 |
| CCCCCCCC/C=C/CCCCCCCC(=O)OC[C@H]1O[C@@H](n2ccc(N)nc2=O)C(F)(F)[C@@H]1O | 7.98 | > 100 |
| NS(=O)(=O)c1ccc(N=Nc2c(O)[nH]c3ccc(-c4cnco4)cc23)cc1 | > 25 | > 25 |
| Clc1ccc(C2=Nn3c(COc4ccccc4Cl)nnc3SC2)c(Cl)c1 | 18.5 | 48.6 |
| COc1cc2c3c(n(CCCNC(=O)OCC4c5ccccc5-c5ccccc54)c(=O)c2cc1OC)-c1cc2c(cc1/C3=C\CCNC(=O)OCC1c3ccccc3-c3ccccc31)OCO2 | > 19 | > 44 |
| N#C/C(=C1C=C(Br)/C(=N\O)C=C\1Cl)c1cccc2ccccc12 |  | 16.3 |
| COC(=O)[C@@H](C)CNS(=O)(=O)N(c1cc(C(F)(F)F)cc(C(F)(F)F)c1)C1CCN(Cc2ccc(F)cc2)CC1 | 12.7 | 29.3 |
| C=C1C(=O)O[C@@H]2/C=C(\C)CC/C=C(/COC(C)=O)C[C@@H](OC(C)=O)[C@@H]12 |  | 28.5 |
| COC(=O)[C@H](C)NC(=O)NC(=O)NC(=O)CI | 18.8 | 37.9 |

Each compound was assayed on NCI-H226 lung (assay: DTP human tumour cell line panel, 48 h).

| SMILES | GI50 [µM] | TGI [µM] |
| --- | --- | --- |
| CC(C)n1nc(-c2cc3cc(O)ccc3[nH]2)c2c(N)ncnc21 | 0.117 | 1.31 |
| CCCCC(O)(c1ccc(Cl)cc1)C(CN1CCOCC1)c1ccc(Cl)cc1 (stereo not given) | 11.8 | 28.8 |
| NCC1Nc2ccccc2[C@@H](O)C1O (stereo not given in full) |  | > 100 |
| Cc1cccc(N2CCN(C(=S)c3ccc4c(c3)OCO4)CC2)c1 | 41 | > 100 |
| O=C(N/N=C/c1ccc(Cl)cc1)c1ccc(C(F)(F)F)nc1Nc1cccc(C(F)(F)F)c1 | 2.21 | 6.82 |
| COc1cc2ncnc(Nc3ccc(C)c(O)c3)c2cc1OC | 20.5 | > 25 |
| COC(=O)C1=CNC=C(C(=O)OC)C1C1=CC(=O)C(C)=CC1=O | 5.35 | 17.2 |
| Cc1cc(S(=O)(=O)Nc2nnc(-c3ccccc3)c(-c3ccccc3)n2)c(SCC(N)=O)cc1Cl | 59.9 | > 100 |
| COc1ccc(/C=C/c2ccnc3ccccc23)c(OC)c1 |  | > 10 |
| Cc1ccc(C(=O)CN(/C=C/C(=O)C(F)(F)F)c2ccc(S(N)(=O)=O)cc2)cc1 | > 100 | > 100 |
| NS(=O)(=O)c1ccc(NC2(C(=O)O)CCCC2)cc1 |  | > 100 |
| O=C(O)C1OC(n2cc(F)c(=O)[nH]c2=O)CC1O (stereo not given) |  | > 100 |
| N=C1C(c2nc3ccccc3s2)=C(O)CN1c1cc(C(F)(F)F)ccc1Cl | 2.75 | 28.5 |
| CC(=O)CSCc1ccccn1 |  | 43.7 |
| COc1ccccc1CNCCCN1C(=O)c2ccc3c4c(ccc(c24)C1=O)C(=O)N(CCCOCCCCOCCCN)C3=O | 1.56 | 3.02 |
| CCOC(=O)[C@@H](N)CCC(=O)N[C@@H](CSCc1ccccc1)C(=O)N[C@@H](C(=O)OCC)c1ccccc1 | 16.4 | 37.5 |
| COc1ccc(Nc2c3ccccc3nc3occc23)cc1 | 31.9 | > 100 |
| CC(=O)/C(C)=N/NC(=O)c1ccccc1O | > 100 | > 100 |
| COc1cc(/C=C/c2cc(/C=C/c3ccc(O)c(OC)c3)n(C(=O)Nc3ccc(F)c(Cl)c3)n2)ccc1O | 0.491 | 2.3 |
| CCCCCCCC/C=C/CCCCCCCC(=O)OC[C@H]1O[C@@H](n2ccc(N)nc2=O)C(F)(F)[C@@H]1O | 0.333 | > 61.3 |
| NS(=O)(=O)c1ccc(N=Nc2c(O)[nH]c3ccc(-c4cnco4)cc23)cc1 | > 25 | > 25 |
| Clc1ccc(C2=Nn3c(COc4ccccc4Cl)nnc3SC2)c(Cl)c1 | 14.6 | 41.6 |
| COc1cc2c3c(n(CCCNC(=O)OCC4c5ccccc5-c5ccccc54)c(=O)c2cc1OC)-c1cc2c(cc1/C3=C\CCNC(=O)OCC1c3ccccc3-c3ccccc31)OCO2 | > 50 | > 50 |
| N#C/C(=C1C=C(Br)/C(=N\O)C=C\1Cl)c1cccc2ccccc12 |  | 6.54 |
| COC(=O)[C@@H](C)CNS(=O)(=O)N(c1cc(C(F)(F)F)cc(C(F)(F)F)c1)C1CCN(Cc2ccc(F)cc2)CC1 | 13.2 | 30.2 |
| C=C1C(=O)O[C@@H]2/C=C(\C)CC/C=C(/COC(C)=O)C[C@@H](OC(C)=O)[C@@H]12 |  | 64.1 |
| COC(=O)[C@H](C)NC(=O)NC(=O)NC(=O)CI | 19.8 | 44.9 |

From PubChem BioAssay (NCI)
